Experimental data reported in patent US10815199B2, “NMDA antagonist prodrugs” (priority 2013, dated 2020).
Structures can show the parent of a compound that is named as a salt. Where two headings read alike, the source gives them in different places.

Tests used:
[1] = Hum Liver Assay (human liver S9 fraction); assay type: in vitro ADME
Text: This example illustrates that different prodrugs of (S)-1-phenyl-2-(pyridin-2-yl)ethanamine, wherein R1 is C1-6 alkylC(O)O(C1-6 alkoxy), may be used to achieve differing rates of conversion (i.e., slow or rapid) to (S)-1-phenyl-2-(pyridin-2-yl)ethanamine to ascertain a suitable PK profile. […] Further, this Example illustrates that there is no expected loss in oral exposure when a prodrug is converted to free base. Conversion of a prodrug wherein R1 is C1-6 alkylC(O)O(C1-6 alkoxy) to (S)-1-phenyl-2-(pyridin-2-yl)ethanamine is expected to occur via an initial enzymatic hydrolysis of a functional group, such as an ester, followed by a spontaneous conversion to (S)-1-phenyl-2-(pyridin-2-yl)ethanamine. Enzymes involved are expected to be several non-specific, high capacity esterases, which can be shown by inhibiting the conversion with a non-selective esterase inhibitor but not inhibiting the conversion using selective inhibitors. Such esterases are expected to be distributed throughout the human body. Human Intestinal Fluid (HIF), human liver S9 fraction and human whole blood have been used to examine the pharmacokinetic properties of the prodrugs of (S)-1-phenyl-2-(pyridin-2-yl)ethanamine as well as the formation rate and formation extent of the (S)-1-phenyl-2-(pyridin-2-yl)ethanamine in different bodily compartments. The formation rate of (S)-1-phenyl-2-(pyridin-2-yl)ethanamine from different prodrugs of (S)-1-phenyl-2-(pyridin-2-yl)ethanamine differs markedly in all tested assays, as shown in Table 1.
Human Intestinal Fluids (HIF), Human Liver and Human Blood assays used to generate the results shown in Table 1 have been described in Malmborg J & Ploeger B A, J Pharmacol Toxicol Methods (2013) May-June 67(3) 203-13, which is incorporated by reference herein.
(§1) [drawing 48] is expected to occur via enzymatic hydrolysis at the proline C-terminus, releasing a dipeptide and (S)-1-phenyl-2-(pyridin-2-yl)ethanamine. The enzyme involved is expected to be dipeptidyl peptidase IV (DPPIV), which can be shown by inhibiting the conversion with a selective inhibitor of this enzyme. DPPIV is expected to be distributed throughout the human body. Human Intestinal Fluid (HIF), human liver S9 fraction and human whole blood have been used to examine the pharmacokinetic properties of prodrugs of (S)-1-phenyl-2-(pyridin-2-yl)ethanamine as well as the formation rate and formation extent of the (S)-1-phenyl-2-(pyridin-2-yl)ethanamine in different bodily compartments. Caco-2 cells have been used to evaluate the permeability and absorption potential of the prodrugs of (S)-1-phenyl-2-(pyridin-2-yl)ethanamine. The formation rate of (S)-1-phenyl-2-(pyridin-2-yl)ethanamine from different prodrugs of (S)-1-phenyl-2-(pyridin-2-yl)ethanamine differed in the tested assays, especially in human blood, as shown in Table 2.

Caco-2 permeability = assay type: in vitro ADME; settings: human; Caco-2 cells
Text: as §1

Seizures in dog = Seizures in dog (NOEL/LOEL) after oral gavage; assay type: in vivo; settings: for LOEL Seizures in dog (Dose administered) / NOEL Seizures in dog (Dose administered): oral gavage, dose reflects free base concentration
Description: This example illustrates that when doses of prodrug of (S)-1-phenyl-2-(pyridin-2-yl)ethanamine dihydrochloride (Example 5) and (S)-1-phenyl-2-(pyridin-2-yl)ethanamine dihydrochloride were administered to dogs, the risk of seizures, as represented by NOEL and LOEL, was less with the prodrug.
(S)-1-phenyl-2-(pyridin-2-yl)ethanamine dihydrochloride and vehicle were administered once per day via oral gavage (water). Formulations were prepared twice, once weekly. Dosing formulations were stored and refrigerated (2-8° C.) in amber glass containers until required for dosing. A range of concentrations of (S)-1-phenyl-2-(pyridin-2-yl)ethanamine dihydrochloride in vehicle were prepared in order to keep the dose volume for all doses (1 mL/kg). Individual doses were based on the most recent body weights of dogs used in the study.
A prodrug of (S)-1-phenyl-2-(pyridin-2-yl)ethanamine as fumarate salt (example 5) and vehicle were administered once per day for 14 days via oral gavage at approximately the same time each day (±1 hour), (vehicle is 0.3 M gluconic acid pH 3.0). A range of concentrations of prodrug of (S)-1-phenyl-2-(pyridin-2-yl)ethanamine as fumarate salt in vehicle were prepared (for example 3, 10 and 30 mg/mL of prodrug of (S)-1-phenyl-2-(pyridin-2-yl)ethanamine) in order to keep the dose volume for all doses (2 mL/kg). The dosing formulations were warmed to room temperature by stirring for at least 30 minutes prior to dosing and continuously throughout the administration procedure. Individual doses were based on the most recent body weights of dogs used in the study.
Table 4 Compound 1 is (S)-1-phenyl-2-(pyridin-2-yl)ethanamine. […] In each case the highest blood concentration (Cmax) of free base (S)-1-phenyl-2-(pyridin-2-yl)ethanamine is measured. In the first case, the free base (S)-1-phenyl-2-(pyridin-2-yl)ethanamine is generated directly from Compound 1, administered as the dihydrochloride salt. In the second case, the free base (S)-1-phenyl-2-(pyridin-2-yl)ethanamine is generated via in vivo conversion from a prodrug of Compound 1, administered as the fumarate salt. The NOEL for seizures was higher when the prodrug of (S)-1-phenyl-2-(pyridin-2-yl)ethanamine as fumarate salt was administered compared to when (S)-1-phenyl-2-(pyridin-2-yl)ethanamine as dihydrochloride salt was administered.

[2] = Conversion of prodrug at increasing initial concentrations in human intestinal fluid (LC-UV); assay type: in vitro ADME; settings: initial concentrations 33, 100, 300 and 600 μmol/L, FIG. 1a and 1b
Description: FIGS. 1a and 1b illustrates the conversion of prodrug of (S)-1-phenyl-2-(pyridin-2-yl)ethanamine (Example 5) to (S)-1-phenyl-2-(pyridin-2-yl)ethanamine during an incubation period in human intestinal fluid. In particular, FIG. 1a illustrates prodrug of (S)-1-phenyl-2-(pyridin-2-yl)ethanamine (Example 5) concentration (initial concentrations of 30, 100, 300 and 600 as it transforms to (S)-1-phenyl-2-(pyridin-2-yl)ethanamine, during an incubation period in human intestinal fluid. FIG. 1b illustrates (S)-1-phenyl-2-(pyridin-2-yl)ethanamine concentration, as it converts from prodrug of (S)-1-phenyl-2-(pyridin-2-yl)ethanamine (Example 5, initial concentrations of 30, 100, 300 and 600 μM), during an incubation period in human intestinal fluid. […]
Stock solutions of prodrug of (S)-1-phenyl-2-(pyridin-2-yl)ethanamine (0.33, 1, 3 and 6 mmol/L) were prepared by adding a volume (8.25, 25, 75 and 150 μL) of 20 mmol/L solution of prodrug of (S)-1-phenyl-2-(pyridin-2-yl)ethanamine dissolved in DMSO, to FaSSIF-v2 (491.75, 475, 425 and 350 μL). […] The conversion rate from prodrug to (S)-1-phenyl-2-(pyridin-2-yl)ethanamine was determined by fitting the measured prodrug and (S)-1-phenyl-2-(pyridin-2-yl)ethanamine concentrations versus time.

[3] = human, s9, Table 2, read-out: Prodrug Clint Hum Liver S9
[4] = human, s9, Table 1, read-out: Prodrug Clint Hum Liver S9

Compound | microsomal CLint [1, 3] | Papp (Caco-2 permeability) | microsomal CLint [1, 4] | further results
N[C@@H](Cc1c[nH]cn1)C(=O)N1CCC[C@H]1C(=O)N[C@@H](Cc1ccccn1)c1ccccc1 [Example 7, (S)-1-((S)-2-Amino-3-(1H-imidazol-4-yl)propanoyl)-N—((S)-1-phenyl-2-(pyridin-2-yl)ethyl)pyrrolidine-2-carboxamide] | 33 µL/min/mg | 1.6 ×10⁻⁶ cm/s |  | 
CC(C)C(=O)OCOC(=O)N[C@@H](Cc1ccccn1)c1ccccc1 [Example 1, (S)-(1-Phenyl-2-(pyridin-2-yl)ethylcarbamoyloxy)methyl isobutyrate] |  |  | 2300 µL/min/mg | 
N=C(N)NCCC[C@H](N)C(=O)N1CCC[C@H]1C(=O)N[C@@H](Cc1ccccn1)c1ccccc1 [Example 12, 2-[(2S)-2-{[(2S)-1-[(2S)-2-Azaniumyl-5-{[azaniumyl(iminiumyl)methyl]amino}pentanoyl]-pyrrolidin-2-yl]formamido}-2-phenylethyl]pyridin-1-ium tetrachloride] | 69 µL/min/mg | 8.6 ×10⁻⁶ cm/s |  | 
NCCCC[C@H](N)C(=O)N1CCC[C@H]1C(=O)N[C@@H](Cc1ccccn1)c1ccccc1 [Example 6, (S)-1-((S)-2,6-Diaminohexanoyl)-N—((S)-1-phenyl-2-(pyridin-2-yl)ethyl)pyrrolidine-2-carboxamide] | 73 µL/min/mg | 0.07 ×10⁻⁶ cm/s |  | 
CC(C)[C@H](N)C(=O)N1CCC[C@H]1C(=O)N[C@@H](Cc1ccccn1)c1ccccc1 [Prodrug of Compound 1, as fumarate salt, (S)-1-((S)-2-Amino-3-methylbutanoyl)-N-((S)-1-phenyl-2-(pyridin-2-yl)ethyl)pyrrolidine-2-carboxamide fumerate] |  |  |  | LOEL Seizures in dog (Dose administered) (Seizures in dog): (60 mg/kg); NOEL Seizures in dog (Dose administered) (Seizures in dog): (20 mg/kg)
CC(OC(=O)N[C@@H](Cc1ccccn1)c1ccccc1)OC(=O)C(C)C (single isomer, unassigned) [Example 4 Diastereomer 1] |  |  | 1200 µL/min/mg | 
CC(C)C(=O)OC(OC(=O)N[C@@H](Cc1ccccn1)c1ccccc1)C(C)C (single isomer, unassigned) [Example 2 Diastereomer 2] |  |  | 1900 µL/min/mg | 
Cl.Cl.N[C@@H](Cc1ccccn1)c1ccccc1 [Compound 1, as di-HCl salt, (S)-1-phenyl-2-(pyridin-2-yl)ethanamine dihydrochloride, reference compound] |  |  |  | LOEL Seizures in dog (Dose administered) (Seizures in dog): (20 mg/kg); NOEL Seizures in dog (Dose administered) (Seizures in dog): (10 mg/kg)
N[C@@H](Cc1ccc(O)cc1)C(=O)N1CCC[C@H]1C(=O)N[C@@H](Cc1ccccn1)c1ccccc1 [Example 8, 2-((S)-2-((S)-1-((S)-2-Amino-3-(4-hydroxyphenyl)propanoyl)pyrrolidine-2-carboxamido)-2-phenylethyl)pyridine dihydrochloride] |  | 3.2 ×10⁻⁶ cm/s |  | microsomal CLint ([1]; Table 2, read-out: Prodrug Clint Hum Liver S9): 51 µL/min/mg
CC(C)[C@H](N)C(=O)N1CCC[C@H]1C(=O)N[C@@H](Cc1ccccn1)c1ccccc1 [Example 5, (S)-1-((S)-2-Amino-3-methylbutanoyl)-N—((S)-1-phenyl-2-(pyridin-2-yl)ethyl)pyrrolidine-2-carboxamide] | 120 µL/min/mg | 1.4 ×10⁻⁶ cm/s |  | risk of seizures, as represented by NOEL and LOEL (Seizures in dog; dogs, prodrug versus (S)-1-phenyl-2-(pyridin-2-yl)ethanamine dihydrochloride): less; increase in concentration of (S)-1-phenyl-2-(pyridin-2-yl)ethanamine with increasing doses of prodrug [2]: less than proportional increases
